One data set deals with CYP3A4 (Homo sapiens, UniProt P08684). The data set is described as follows: Cytochrome P450 (CYP450) Inhibition Assay, CYP3A4 (Vivid fluorescence, BOMCC substrate). Conditions: human, P450 Baculosomes (recombinant CYP3A4), probe BOMCC (Vivid substrate).
The test system of the next data set is sodium channel. The data set is described as follows: Guanidine influx assay (14C-guanidine radiotracer flux, in vitro). The data set is classed as cell-based, human or rat. Conditions: guanidine influx assay using a known cell line that expresses a sodium channel. The procedure, abridged:
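Cells stably expressing human or rat sodium channels (~100,000/well, 20–24 h) were exposed in low-sodium choline buffer to test agent plus aconitine activator and 14C-guanidine at ambient temperature. Intracellular 14C-guanidine was counted by scintillation; IC50 fitted by 4-parameter logistic over half-dilutions around 1 μM.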

The record followed here is US8263606B2 (Xenon Pharmaceuticals Inc., priority 2008, dated 2012).

Structures can show the parent of a compound that is named as a salt. Where only a bound is given, the exact number is not on record here.

CYP3A4, sequence (P08684 whole entry): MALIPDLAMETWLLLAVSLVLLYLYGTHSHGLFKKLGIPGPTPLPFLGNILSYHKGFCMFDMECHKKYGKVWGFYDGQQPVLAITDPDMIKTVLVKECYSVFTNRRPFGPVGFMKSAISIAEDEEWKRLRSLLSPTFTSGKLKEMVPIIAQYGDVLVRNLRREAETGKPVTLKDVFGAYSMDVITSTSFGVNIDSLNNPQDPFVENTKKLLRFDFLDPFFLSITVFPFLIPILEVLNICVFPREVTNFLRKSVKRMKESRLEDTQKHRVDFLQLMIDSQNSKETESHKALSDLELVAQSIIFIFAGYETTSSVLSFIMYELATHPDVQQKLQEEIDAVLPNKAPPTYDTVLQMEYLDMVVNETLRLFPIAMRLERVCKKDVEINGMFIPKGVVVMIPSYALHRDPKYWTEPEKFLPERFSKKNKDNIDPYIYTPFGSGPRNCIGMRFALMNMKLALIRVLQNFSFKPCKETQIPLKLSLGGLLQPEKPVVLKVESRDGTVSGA

`COc1ccc(CCNC(=O)c2ccccc2CN2C(=O)C3(COc4cc5c(cc43)CCO5)c3ccccc32)cc1` (stereo not shown) [Example 12.22, N-[2-(4-methoxyphenyl)ethyl]-2-[(2′-oxo-5,6-dihydrospiro[benzo[1,2-b:5,4-b′]difuran-3,3′-indol]-1′(2′H)-yl)methyl]benzamide]: the inhibition at 10 µM at CYP3A4 is > 50%. Moreover, in the data set on sodium channel, the IC50 fell in the range of 1 to 10 µM.

Turning to `O=C(NCc1cccc(Cl)c1)c1ccccc1CN1C(=O)C2(COc3cc4c(cc32)CCO4)c2ccccc21` (stereo not shown) [Example 12.23, N-(3-chlorobenzyl)-2-[(2′-oxo-5,6-dihydrospiro[benzo[1,2-b:5,4-b′]difuran-3,3′-indol]-1′(2′H)-yl)methyl]benzamide], the inhibition at 10 µM at CYP3A4 is > 50%. Moreover, the IC50 in the data set on sodium channel lay within 1 to 10 µM.

For the compound `O=C(NCCc1ccc(Cl)cc1)c1ccccc1CN1C(=O)C2(COc3cc4c(cc32)CCO4)c2ccccc21` (stereo not shown) [Example 12.24, N-[2-(4-chlorophenyl)ethyl]-2-[(2′-oxo-5,6-dihydrospiro[benzo[1,2-b:5,4-b′]difuran-3,3′-indol]-1′(2′H)-yl)methyl]benzamide], the inhibition at 10 µM on CYP3A4 was > 50%. Also, the IC50 in the data set on sodium channel was in the range of 1 to 10 µM.

Take `COc1ccccc1NC(=O)c1ccc(CN2C(=O)C3(COc4cc5c(cc43)CCO5)c3ccccc32)cc1` (stereo not shown) [Example 12.25, N-(2-methoxyphenyl)-4-[(2′-oxo-5,6-dihydrospiro[benzo[1,2-b:5,4-b′]difuran-3,3′-indol]-1′(2′H)-yl)methyl]benzamide]: the inhibition at 10 µM on CYP3A4 is < 50%. For the same compound, the IC50 in the data set on sodium channel was in the range of 1 to 10 µM.

With `O=C(Nc1ccccc1C(F)(F)F)c1ccc(CN2C(=O)C3(COc4cc5c(cc43)CCO5)c3ccccc32)cc1` (stereo not shown) [Example 12.26, 4-[(2′-oxo-5,6-dihydrospiro[benzo[1,2-b:5,4-b′]difuran-3,3′-indol]-1′(2′H)-yl)methyl]-N-[2-(trifluoromethyl)phenyl]benzamide], the inhibition at 10 µM at CYP3A4 was > 50%. In the data set with sodium channel, the IC50 lay within 1 to 10 µM.

In the case of `O=C(Nc1ccccc1)c1ccc(CN2C(=O)C3(COc4cc5c(cc43)CCO5)c3ccccc32)cc1` (stereo not shown) [Example 12.27, 4-[(2′-oxo-5,6-dihydrospiro[benzo[1,2-b:5,4-b′]difuran-3,3′-indol]-1′(2′H)-yl)methyl]-N-phenylbenzamide], the inhibition at 10 µM on CYP3A4 is < 50%. In addition, the IC50 in the data set on sodium channel fell in the range of 0.1 to 1 µM.

Regarding `CNC(=O)c1ccc(CN2C(=O)C3(COc4cc5c(cc43)CCO5)c3ccccc32)cc1` (stereo not shown) [Example 12.28, N-methyl-4-[(2′-oxo-5,6-dihydrospiro[benzo[1,2-b:5,4-b′]difuran-3,3′-indol]-1′(2′H)-yl)methyl]benzamide], the inhibition at 10 µM at CYP3A4 was > 50%. Further, the IC50 in the data set on sodium channel lay within 0.1 to 1 µM.

As to `O=C(Nc1ccccc1F)c1ccc(CN2C(=O)C3(COc4cc5c(cc43)CCO5)c3ccccc32)cc1` (stereo not shown) [Example 12.29, N-(2-fluorophenyl)-4-[(2′-oxo-5,6-dihydrospiro[benzo[1,2-b:5,4-b′]difuran-3,3′-indol]-1′(2′H)-yl)methyl]benzamide], the inhibition at 10 µM on CYP3A4 was < 50%. Further, the IC50 in the data set on sodium channel lay within 0.1 to 1 µM.

As to `O=C(NCCc1cccs1)c1ccc(CN2C(=O)C3(COc4cc5c(cc43)CCO5)c3ccccc32)cc1` (stereo not shown) [Example 12.30, 4-[(2′-oxo-5,6-dihydrospiro[benzo[1,2-b:5,4-b′]difuran-3,3′-indol]-1′(2′H)-yl)methyl]-N-(2-thiophen-2-ylethyl)benzamide], on CYP3A4, the inhibition at 10 µM was > 50%. For the same compound, the IC50 in the data set with sodium channel was 0.1 to 1 µM.

On to `NC(=O)c1ccc(CN2C(=O)C3(COc4cc5c(cc43)CCO5)c3ccccc32)cc1` (stereo not shown) [Example 12.31, 4-[(2′-oxo-5,6-dihydrospiro[benzo[1,2-b:5,4-b′]difuran-3,3′-indol]-1′(2′H)-yl)methyl]benzamide], for which, on CYP3A4, the inhibition at 10 µM was > 50%. Besides, the IC50 in the data set with sodium channel lay in the range of 0.001 to 0.1 µM.

For `O=C(Nc1ccc2c(c1)CCC2)c1ccc(CN2C(=O)C3(COc4cc5c(cc43)CCO5)c3ccccc32)cc1` (stereo not shown) [Example 12.32, N-(2,3-dihydro-1H-inden-5-yl)-4-[(2′-oxo-5,6-dihydrospiro[benzo[1,2-b:5,4-b′]difuran-3,3′-indol]-1′(2′H)-yl)methyl]benzamide], the inhibition at 10 µM at CYP3A4 is < 50%. The IC50 in the data set with sodium channel is 1 to 10 µM.

Turning to `O=C(c1ccc(CN2C(=O)C3(COc4cc5c(cc43)CCO5)c3ccccc32)cc1)N1CCOCC1` (stereo not shown) [Example 12.33, 1′-[4-(morpholin-4-ylcarbonyl)benzyl]-5,6-dihydrospiro[benzo[1,2-b:5,4-b′]difuran-3,3′-indol]-2′(1′H)-one], at CYP3A4, the inhibition at 10 µM was > 50%. Besides, the IC50 in the data set with sodium channel was in the range of 1 to 10 µM.

For `NC(=O)CN1C(=O)C2(COc3cc4c(cc32)CCO4)c2ccccc21` (stereo not shown) [Example 12.46, 2-(2′-oxo-5,6-dihydrospiro[benzo[1,2-b:5,4-b′]difuran-3,3′-indol]-1′(2′H)-yl)acetamide], the inhibition at 10 µM at CYP3A4 is < 50%. Moreover, the IC50 in the data set on sodium channel was 1 to 10 µM.

As for `CCc1ccc(NC(=O)CN2C(=O)C3(COc4cc5c(cc43)CCO5)c3ccccc32)cc1` (stereo not shown) [Example 12.47, N-(4-ethylphenyl)-2-(2′-oxo-5,6-dihydrospiro[benzo[1,2-b:5,4-b′]difuran-3,3′-indol]-1′(2′H)-yl)acetamide], the inhibition at 10 µM at CYP3A4 is < 50%. In the data set with sodium channel, the half-inhibitory concentration (IC50) fell in the range of 1 to 10 µM.

For `CCN(CC)C(=O)CN1C(=O)C2(COc3cc4c(cc32)CCO4)c2ccccc21` (stereo not shown) [Example 12.48, N,N-diethyl-2-(2′-oxo-5,6-dihydrospiro[benzo[1,2-b:5,4-b′]difuran-3,3′-indol]-1′(2′H)-yl)acetamide], at CYP3A4, the inhibition at 10 µM is < 50%. Besides, the IC50 in the data set on sodium channel was 0.1 to 1 µM.

For the compound `CNC(=O)c1cccnc1CN1C(=O)C2(COc3cc4c(cc32)OCCO4)c2ccccc21` (stereo not shown) [Example 12.63, N-methyl-2-[(2′-oxo-2,3-dihydrospiro[furo[2,3-g][1,4]benzodioxine-8,3′-indol]-1′(2′H)-yl)methyl]pyridine-3-carboxamide], the inhibition at 10 µM on CYP3A4 is < 50%. Besides, the half-inhibitory concentration (IC50) in the data set on sodium channel lay in the range of 1 to 10 µM.

As to `NCCNC(=O)c1cccnc1CN1C(=O)C2(COc3cc4c(cc32)OCCO4)c2ccccc21` (stereo not shown) [Example 12.64, N-(2-aminoethyl)-2-[(2′-oxo-2,3-dihydrospiro[furo[2,3-g][1,4]benzodioxine-8,3′-indol]-1′(2′H)-yl)methyl]pyridine-3-carboxamide dihydrochloride], at CYP3A4, the inhibition at 10 µM was > 50%. The IC50 in the data set with sodium channel was in the range of 0.1 to 1 µM.

In the case of `O=C(O)c1ccc(CN2C(=O)C3(COc4cc5c(cc43)CCO5)c3ccccc32)o1` (stereo not shown) [Example 13, 5-[(2′-oxo-5,6-dihydrospiro[benzo[1,2-b:5,4-b′]difuran-3,3′-indol]-1′(2′H)-yl)methyl]furan-2-carboxylic acid], on CYP3A4, the inhibition at 10 µM is < 50%. Also, the IC50 with sodium channel lay within 1 to 10 µM.

`CN(C)C(=O)c1ccc(CN2C(=O)C3(COc4cc5c(cc43)CCO5)c3ccccc32)o1` (stereo not shown) [Example 13.1, N,N-dimethyl-5-[(2′-oxo-5,6-dihydrospiro[benzo[1,2-b:5,4-b′]difuran-3,3′-indol]-1′(2′H)-yl)methyl]furan-2-carboxamide]: the inhibition at 10 µM on CYP3A4 was > 50%. The half-inhibitory concentration (IC50) in the data set on sodium channel fell in the range of 0.001 to 0.1 µM.

Regarding `CNC(=O)c1ccc(CN2C(=O)C3(COc4cc5c(cc43)CCO5)c3ccccc32)o1` (stereo not shown) [Example 13.2, N-methyl-5-[(2′-oxo-5,6-dihydrospiro[benzo[1,2-b:5,4-b′]difuran-3,3′-indol]-1′(2′H)-yl)methyl]furan-2-carboxamide], the inhibition at 10 µM at CYP3A4 is > 50%. In addition, in the data set on sodium channel, the IC50 lay within 0.1 to 1 µM.
